Assay results from article PMC7724566, “Prospects for Clinical Development of Stat5 Inhibitor IST5-002: High Transcriptomic Specificity in Prostate Cancer and Low Toxicity In Vivo” (Cancers, 2020).

What was measured:
Assay in all cases: Kinase Seeker luminescence cell-free assay
Type in all cases: binding
Details in all cases: percent activity of kinase after exposure to IST5 1 µM
ABL1 = biological target: T1, ABL1 (Homo sapiens, UniProt P00519)
T1 construct: purchased Reaction Biology (JAK1/2/3, TYK2); Luceome Biotechnologies KinaseSeeker (others)
Protocol: (§1) For Jak1, Jak2, Jak3 and Tyk2, a radiometric filtration binding assay was conducted by Reaction Biologicals (Malvern, PA, USA) (Table 1). This radiometric assay is a cell-free assay which is based on conventional filter-binding assays, directly measuring kinase catalytic activity toward a specific substrate. For evaluation of the activity of the other kinases, the Kinase Seeker Technology was utilized (Luceome Biotechnologies, Tucson, AZ, USA), which is a luminescence-based cell-free assay. In this assay, the reassembly of luciferase fragments is mediated by the interaction of a kinase with an active site-dependent probe. The competitive displacement of the probe by an inhibitor is measured by a change in luminescence signal. Percent activity of each kinase after exposure to IST5 (1 µM) is presented.

SRC = biological target: T2, SRC (Homo sapiens, UniProt P12931)
T2 construct: purchased Reaction Biology (JAK1/2/3, TYK2); Luceome Biotechnologies KinaseSeeker (others)
Protocol: as §1

PAK1 = biological target: T3, PAK1 (Homo sapiens, UniProt Q13153)
T3 construct: purchased Reaction Biology (JAK1/2/3, TYK2); Luceome Biotechnologies KinaseSeeker (others)
Protocol: as §1

FGFR2 = biological target: T4, FGFR2 (Homo sapiens, UniProt P21802)
T4 construct: purchased Reaction Biology (JAK1/2/3, TYK2); Luceome Biotechnologies KinaseSeeker (others)
Protocol: as §1

IKKe = biological target: T5, IKKe (Homo sapiens, UniProt Q14164)
T5 construct: purchased Reaction Biology (JAK1/2/3, TYK2); Luceome Biotechnologies KinaseSeeker (others)
Protocol: as §1

AKT2 = biological target: T6, AKT2 (Homo sapiens, UniProt P31751)
T6 construct: purchased Reaction Biology (JAK1/2/3, TYK2); Luceome Biotechnologies KinaseSeeker (others)
Protocol: as §1

AXL = biological target: T7, AXL (Homo sapiens, UniProt P30530)
T7 construct: purchased Reaction Biology (JAK1/2/3, TYK2); Luceome Biotechnologies KinaseSeeker (others)
Protocol: as §1

TBK1 = biological target: T8, TBK1 (Homo sapiens, UniProt Q9UHD2)
T8 construct: purchased Reaction Biology (JAK1/2/3, TYK2); Luceome Biotechnologies KinaseSeeker (others)
T8 sequence (Q9UHD2 whole entry): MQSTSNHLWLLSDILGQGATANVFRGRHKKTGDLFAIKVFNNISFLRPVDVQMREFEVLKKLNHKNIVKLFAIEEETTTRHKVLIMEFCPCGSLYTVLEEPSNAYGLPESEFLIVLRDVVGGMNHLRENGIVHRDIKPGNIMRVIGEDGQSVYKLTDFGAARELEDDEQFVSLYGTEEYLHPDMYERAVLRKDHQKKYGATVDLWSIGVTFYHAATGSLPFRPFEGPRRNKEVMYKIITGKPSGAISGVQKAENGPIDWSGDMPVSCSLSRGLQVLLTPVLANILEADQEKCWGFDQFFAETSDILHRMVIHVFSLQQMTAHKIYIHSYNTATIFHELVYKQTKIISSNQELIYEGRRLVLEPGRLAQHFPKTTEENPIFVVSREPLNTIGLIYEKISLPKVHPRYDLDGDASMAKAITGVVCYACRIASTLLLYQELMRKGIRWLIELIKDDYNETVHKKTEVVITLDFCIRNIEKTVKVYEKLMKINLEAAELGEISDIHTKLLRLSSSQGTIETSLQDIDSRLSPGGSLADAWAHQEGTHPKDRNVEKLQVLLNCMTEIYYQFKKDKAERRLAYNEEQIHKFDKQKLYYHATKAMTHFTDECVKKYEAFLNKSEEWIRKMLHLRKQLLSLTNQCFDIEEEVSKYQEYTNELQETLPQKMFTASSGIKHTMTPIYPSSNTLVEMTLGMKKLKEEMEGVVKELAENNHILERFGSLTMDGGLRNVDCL
Protocol: as §1

LCK = biological target: T9, LCK (Homo sapiens, UniProt P06239)
T9 construct: purchased Reaction Biology (JAK1/2/3, TYK2); Luceome Biotechnologies KinaseSeeker (others)
Protocol: as §1

FYN = biological target: T10, FYN (Homo sapiens, UniProt P06241)
T10 construct: purchased Reaction Biology (JAK1/2/3, TYK2); Luceome Biotechnologies KinaseSeeker (others)
Protocol: as §1

FLT2/3 = system: FLT2/3
Protocol: as §1

MET = biological target: T11, MET (Homo sapiens, UniProt P08581)
T11 construct: purchased Reaction Biology (JAK1/2/3, TYK2); Luceome Biotechnologies KinaseSeeker (others)
Protocol: as §1

TRKC = biological target: T12, TRKC (Homo sapiens, UniProt Q16288)
T12 construct: purchased Reaction Biology (JAK1/2/3, TYK2); Luceome Biotechnologies KinaseSeeker (others)
T12 sequence (Q16288 32-839): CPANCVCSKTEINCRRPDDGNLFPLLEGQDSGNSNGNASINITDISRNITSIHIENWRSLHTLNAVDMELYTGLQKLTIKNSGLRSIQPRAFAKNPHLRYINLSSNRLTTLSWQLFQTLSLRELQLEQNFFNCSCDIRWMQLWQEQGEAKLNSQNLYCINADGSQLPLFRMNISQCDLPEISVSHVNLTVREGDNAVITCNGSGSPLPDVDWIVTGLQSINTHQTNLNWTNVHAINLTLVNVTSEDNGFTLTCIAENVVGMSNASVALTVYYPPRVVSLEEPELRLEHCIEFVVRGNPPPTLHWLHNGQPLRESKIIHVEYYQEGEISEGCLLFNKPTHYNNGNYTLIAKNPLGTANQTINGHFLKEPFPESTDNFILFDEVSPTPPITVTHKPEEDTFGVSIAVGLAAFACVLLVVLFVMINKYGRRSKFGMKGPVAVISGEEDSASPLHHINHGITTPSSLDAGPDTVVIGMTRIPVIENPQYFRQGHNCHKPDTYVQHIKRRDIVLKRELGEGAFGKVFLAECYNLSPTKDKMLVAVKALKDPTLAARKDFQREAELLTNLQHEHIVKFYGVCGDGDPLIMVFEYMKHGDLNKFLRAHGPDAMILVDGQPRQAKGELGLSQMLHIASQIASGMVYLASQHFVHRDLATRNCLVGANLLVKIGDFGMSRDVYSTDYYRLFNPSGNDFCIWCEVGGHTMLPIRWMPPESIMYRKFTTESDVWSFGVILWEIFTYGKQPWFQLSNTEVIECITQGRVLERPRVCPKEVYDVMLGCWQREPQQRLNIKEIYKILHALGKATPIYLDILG
Protocol: as §1

VEGFR2 = biological target: T13, VEGFR2 (Homo sapiens, UniProt P35968)
T13 construct: purchased Reaction Biology (JAK1/2/3, TYK2); Luceome Biotechnologies KinaseSeeker (others)
Protocol: as §1

ABL2 = biological target: T14, ABL2 (Homo sapiens, UniProt P42684)
T14 construct: purchased Reaction Biology (JAK1/2/3, TYK2); Luceome Biotechnologies KinaseSeeker (others)
Protocol: as §1

DDR1 = biological target: T15, DDR1 (Homo sapiens, UniProt Q08345)
T15 construct: purchased Reaction Biology (JAK1/2/3, TYK2); Luceome Biotechnologies KinaseSeeker (others)
T15 sequence (Q08345 19-913): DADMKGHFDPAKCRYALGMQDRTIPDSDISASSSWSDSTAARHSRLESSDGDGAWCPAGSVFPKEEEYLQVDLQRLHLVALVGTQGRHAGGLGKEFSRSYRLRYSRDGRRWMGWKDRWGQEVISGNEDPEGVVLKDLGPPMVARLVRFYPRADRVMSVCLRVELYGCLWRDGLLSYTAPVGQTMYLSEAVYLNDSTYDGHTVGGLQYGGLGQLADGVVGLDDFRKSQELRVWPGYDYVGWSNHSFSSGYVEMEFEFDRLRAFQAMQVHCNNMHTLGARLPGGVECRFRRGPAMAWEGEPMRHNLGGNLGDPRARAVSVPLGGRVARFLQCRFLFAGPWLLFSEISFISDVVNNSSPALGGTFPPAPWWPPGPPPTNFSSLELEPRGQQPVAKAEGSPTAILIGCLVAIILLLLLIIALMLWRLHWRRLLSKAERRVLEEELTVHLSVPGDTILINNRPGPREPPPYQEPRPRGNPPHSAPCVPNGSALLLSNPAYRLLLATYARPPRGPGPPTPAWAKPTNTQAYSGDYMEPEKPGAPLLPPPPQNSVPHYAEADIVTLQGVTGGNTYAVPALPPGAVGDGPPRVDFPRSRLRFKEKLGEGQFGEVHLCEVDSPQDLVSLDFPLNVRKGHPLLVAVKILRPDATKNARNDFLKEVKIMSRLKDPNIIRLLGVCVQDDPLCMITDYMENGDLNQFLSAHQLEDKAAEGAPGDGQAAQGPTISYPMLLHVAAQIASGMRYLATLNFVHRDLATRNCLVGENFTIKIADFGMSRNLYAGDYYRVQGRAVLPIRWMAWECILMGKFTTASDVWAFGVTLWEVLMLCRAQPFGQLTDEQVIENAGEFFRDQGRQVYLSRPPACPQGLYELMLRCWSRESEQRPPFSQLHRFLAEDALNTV
Protocol: as §1

IGF1R = biological target: T16, IGF1R (Homo sapiens, UniProt P08069)
T16 construct: purchased Reaction Biology (JAK1/2/3, TYK2); Luceome Biotechnologies KinaseSeeker (others)
T16 sequence (P08069 31-1367): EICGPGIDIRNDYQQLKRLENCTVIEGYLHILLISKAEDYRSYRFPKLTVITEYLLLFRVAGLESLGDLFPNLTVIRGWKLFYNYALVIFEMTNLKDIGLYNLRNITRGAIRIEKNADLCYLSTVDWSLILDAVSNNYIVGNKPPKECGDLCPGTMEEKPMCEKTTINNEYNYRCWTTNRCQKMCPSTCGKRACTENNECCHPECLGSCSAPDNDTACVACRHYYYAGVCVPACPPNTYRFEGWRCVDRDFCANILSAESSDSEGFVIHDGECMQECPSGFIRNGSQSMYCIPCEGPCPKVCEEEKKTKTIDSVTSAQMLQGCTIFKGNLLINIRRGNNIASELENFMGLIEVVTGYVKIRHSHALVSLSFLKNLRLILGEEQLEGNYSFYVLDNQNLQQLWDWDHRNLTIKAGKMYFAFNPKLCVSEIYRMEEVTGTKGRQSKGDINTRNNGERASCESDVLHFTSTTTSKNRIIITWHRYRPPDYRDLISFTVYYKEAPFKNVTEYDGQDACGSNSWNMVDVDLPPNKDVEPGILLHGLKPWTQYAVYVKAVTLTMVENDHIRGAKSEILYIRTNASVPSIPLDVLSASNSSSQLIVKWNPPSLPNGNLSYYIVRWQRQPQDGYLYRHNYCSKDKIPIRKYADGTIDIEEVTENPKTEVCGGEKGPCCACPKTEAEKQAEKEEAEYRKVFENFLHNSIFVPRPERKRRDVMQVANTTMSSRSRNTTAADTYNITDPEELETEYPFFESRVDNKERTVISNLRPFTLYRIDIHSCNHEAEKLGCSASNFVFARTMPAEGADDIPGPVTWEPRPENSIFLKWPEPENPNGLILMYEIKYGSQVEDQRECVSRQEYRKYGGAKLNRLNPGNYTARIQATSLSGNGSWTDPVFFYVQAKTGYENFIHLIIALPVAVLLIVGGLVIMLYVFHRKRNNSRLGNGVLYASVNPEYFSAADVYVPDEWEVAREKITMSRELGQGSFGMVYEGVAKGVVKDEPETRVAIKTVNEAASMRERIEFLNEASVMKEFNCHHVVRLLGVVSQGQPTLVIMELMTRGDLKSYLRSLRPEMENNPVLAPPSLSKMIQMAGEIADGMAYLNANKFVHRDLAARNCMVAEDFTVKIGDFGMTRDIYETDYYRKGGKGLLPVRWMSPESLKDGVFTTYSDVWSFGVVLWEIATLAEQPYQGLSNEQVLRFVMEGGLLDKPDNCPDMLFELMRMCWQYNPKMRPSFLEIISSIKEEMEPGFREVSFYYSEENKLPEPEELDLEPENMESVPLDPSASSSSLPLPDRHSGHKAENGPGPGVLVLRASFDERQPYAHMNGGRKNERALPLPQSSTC
Protocol: as §1

p38g = biological target: T17, p38g (Homo sapiens, UniProt P53778)
T17 construct: purchased Reaction Biology (JAK1/2/3, TYK2); Luceome Biotechnologies KinaseSeeker (others)
Protocol: as §1

AKT3 = biological target: T18, AKT3 (Homo sapiens, UniProt Q9Y243)
T18 construct: purchased Reaction Biology (JAK1/2/3, TYK2); Luceome Biotechnologies KinaseSeeker (others)
Protocol: as §1

AKT1 = biological target: T19, AKT1 (Homo sapiens, UniProt P31749)
T19 construct: purchased Reaction Biology (JAK1/2/3, TYK2); Luceome Biotechnologies KinaseSeeker (others)
T19 sequence (P31749 whole entry): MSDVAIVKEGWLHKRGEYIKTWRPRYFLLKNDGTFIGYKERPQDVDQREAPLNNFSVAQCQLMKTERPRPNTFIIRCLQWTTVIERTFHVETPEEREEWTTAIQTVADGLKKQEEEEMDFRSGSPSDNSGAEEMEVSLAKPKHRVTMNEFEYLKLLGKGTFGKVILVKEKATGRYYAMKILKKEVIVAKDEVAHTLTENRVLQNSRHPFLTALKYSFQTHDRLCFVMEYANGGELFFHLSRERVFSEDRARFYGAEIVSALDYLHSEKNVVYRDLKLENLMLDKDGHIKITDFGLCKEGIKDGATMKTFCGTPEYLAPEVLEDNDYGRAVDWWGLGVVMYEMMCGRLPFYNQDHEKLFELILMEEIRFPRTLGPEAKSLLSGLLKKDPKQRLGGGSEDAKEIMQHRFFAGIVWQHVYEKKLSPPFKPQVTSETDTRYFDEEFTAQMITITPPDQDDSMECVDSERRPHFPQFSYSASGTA
Protocol: as §1

CAMKK2 = biological target: T20, CAMKK2 (Homo sapiens, UniProt Q96RR4)
T20 construct: purchased Reaction Biology (JAK1/2/3, TYK2); Luceome Biotechnologies KinaseSeeker (others)
T20 sequence (Q96RR4 whole entry): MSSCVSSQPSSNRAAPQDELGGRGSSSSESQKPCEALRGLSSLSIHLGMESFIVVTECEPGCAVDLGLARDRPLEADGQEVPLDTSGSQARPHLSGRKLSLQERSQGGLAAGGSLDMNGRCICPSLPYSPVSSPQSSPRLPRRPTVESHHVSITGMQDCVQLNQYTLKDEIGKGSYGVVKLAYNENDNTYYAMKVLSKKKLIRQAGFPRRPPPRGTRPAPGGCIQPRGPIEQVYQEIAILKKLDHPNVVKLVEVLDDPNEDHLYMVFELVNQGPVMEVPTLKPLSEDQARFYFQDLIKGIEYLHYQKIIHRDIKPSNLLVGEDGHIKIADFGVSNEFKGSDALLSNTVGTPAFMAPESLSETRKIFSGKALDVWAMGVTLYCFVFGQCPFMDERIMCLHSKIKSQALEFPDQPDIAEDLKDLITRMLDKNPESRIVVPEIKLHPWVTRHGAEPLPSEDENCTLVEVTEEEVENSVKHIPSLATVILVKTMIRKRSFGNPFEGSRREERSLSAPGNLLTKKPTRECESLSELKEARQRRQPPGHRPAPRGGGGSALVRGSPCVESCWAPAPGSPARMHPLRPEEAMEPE
Protocol: as §1

LYN = biological target: T21, LYN (Homo sapiens, UniProt P07948)
T21 construct: purchased Reaction Biology (JAK1/2/3, TYK2); Luceome Biotechnologies KinaseSeeker (others)
Protocol: as §1

ITK = biological target: T22, ITK (Homo sapiens, UniProt Q08881)
T22 construct: purchased Reaction Biology (JAK1/2/3, TYK2); Luceome Biotechnologies KinaseSeeker (others)
Protocol: as §1

DDR2 = biological target: T23, DDR2 (Homo sapiens, UniProt Q16832)
T23 construct: purchased Reaction Biology (JAK1/2/3, TYK2); Luceome Biotechnologies KinaseSeeker (others)
Protocol: as §1

Which results are given for `O=P(O)(O)OCC1OC(n2cnc3c(NCc4ccccc4)ncnc32)C(O)C1O` (stereo not drawn) [IST5]?
Activity (ABL1): 88.3%; Activity (SRC): 92.1%; Activity (PAK1): 98.8%; Activity (FGFR2): 85.7%; Activity (IKKe): 84.8%; Activity (AKT2): 94.3%; Activity (AXL): 90.4%; Activity (TBK1): 92.8%; Activity (LCK): 88.9%; Activity (FYN): 95.8%; Activity (FLT2/3): 93.6%; Activity (MET): 100.0%; Activity (TRKC): 93.4%; Activity (VEGFR2): 89.1%; Activity (ABL2): 88.6%; Activity (DDR1): 89.3%; Activity (IGF1R): 100.0%; Activity (p38g): 100.0%; Activity (AKT3): 95.8%; Activity (AKT1): 100.0%; Activity (CAMKK2): 100.0%; Activity (LYN): 90.4%; Activity (ITK): 100.0%; Activity (DDR2): 97.4%
